Measured values published in US10336792B2, “Antimicrobial peptide dendrimers” (priority 2014, dated 2019).

How the values were obtained:
[1] = test system: Pseudomonas aeruginosa (strain PA01); format: cell-based; settings: 25 μg/mL; 0, 1, 3, 6, 8, 24 h
Method: Cell viability was assayed against Pseudomonas aeruginosa (strain PA01). A colony of bacteria was grown in LB-medium overnight at 37° C. The concentration was quantified by measuring absorbance at 600 nm and diluted to OD600=0.1 (1×10^8 CFU/mL). The samples were prepared as stock solutions of 1 mg mL^−1 in H2O and diluted in LB to a concentration of 50 μg/mL in a 96-well microtiterplate (TPP, untreated). The sample solutions (50 μL) were mixed with the diluted bacterial suspension with an OD600 nm of 0.001 (50 μL). […] The plates were incubated at 37° C. for 1, 3, 6, 8 and 24 h. Each time point was assayed on a separate plate. For each test, two columns of the plate were kept for sterility control (SC, broth only) and growth control (GC, broth with bacterial inoculums, no antibiotics). After incubation 15 μL of WST-8 working solution (3.31 mg/mL WST-8 (Ochem Incorporation), 0.074 mg/mL PES (phenazine ethosulfate)) was added to each well and cells were incubated at 37° C. until GC had desired value. After the reaction took place, the final absorbance was read at 450 nm. For calculations, the value of the GC was set to 100% cell viability and the value of the negative control (no bacteria, SC) was set to 0% cell viability. […]
In order to determine the killing kinetics of AMPDs the amount of living bacteria was measured as a function of time after incubation with the AMPDs. […]

[2] = 5(6)-Carboxyfluorescein leakage from lipid vesicles; settings: 10 mM TRIS, 107 mM NaCl, pH 7.4; peptide added at 50 s
Method: Preparation A thin lipid film was prepared by evaporating a solution of 25 mg Egg PC or Egg PG in 1 mL MeOH/CHCl3 1/1 on a rotary evaporator (rt) and then in vacuo overnight. The resulting film was hydrated with 1 mL buffer (50 mM CF, 10 mM TIRS, 10 mM NaCl, pH 7.4) for 30 min, subjected to freeze-thaw cycles (7×) and extrusion (15×) through a polycarbonate membrane (pore size 100 nm). Extravesicular components were removed by gel filtration (Sephadex G-50) with 10 mM TRIS, 107 mM NaCl, pH 7.4. Final conditions: ˜2.5 mM Egg PC or Egg PG; inside: 50 mM CF, 10 mM TIRS, 10 mM NaCl, pH 7.4; outside: 10 mM TRIS, 107 mM NaCl, pH 7.4.
Experiment Egg PC or Egg PG stock solutions (37.5 μL) were diluted with a buffer (10 mM TRIS, 107 mM NaCl, pH 7.4) and placed in a thermostated fluorescence cuvette (25° C.) and gently stirred (total volume in the cuvette ˜3000 μL; final lipid concentration ˜31.25 μM). CF efflux was monitored at λem 517 nm (λex 492 nm) as a function of time after addition of 20 μL of peptide dendrimer in buffer (10 mM TRIS, 107 mM NaCl, pH 7.4) with final concentrations of 1, 5, 7.5, 10, 15, 20, 25, 30 μg/mL at t=50 s and 1.2% trition X-100 (30 μL, 0.012% final concentration) at t=300 s. Fluorescence intensities were normalized to fractional emission intensity I(t) using I(t)=(It−I0)/(I∞−I0) where I0 It at peptide dendrimer addition, I∞=It at saturation of lysis.
Bacterial membranes contain relatively large amounts of exposed anionic lipids, while the outer leaflet of the membranes of plants and animals is composed mainly of lipids with no net charge. The charge composition of such membranes can be mimicked with phospholipid vesicles. Large unilamellar vesicles (LUVs) composed of the neutral phospholipid with PC (phosphatidyl choline) or with PG (phosphatidyl glycerol) with negative charges were prepared encapsulating 5(6)-carboxyfluorescein (CF). […] The higher the concentration of MSt-112 the higher is the CF leakage (FIG. 6A). […] Overall the active AMPDs interact with the negatively charged membrane and release the CF.

P. aeruginosa PA01 (WT) = format: cell-based, Pseudomonas aeruginosa
Method: (§1) Antimicrobial activity was assayed against P. aeruginosa PA01 (WT), P. aeruginosa PT1482 (A-), PT1485 (A-B-), PT1149 (A-B-C-algC), PT331 (Z61) (LPS mutants), P. aeruginosa PEJ2.6, PEJ9.1, ZEM1.A, ZEM9.A (clinical isolates from Université de Genève/Centre Médical Universitaire), Burkholderia cenocepacia (B. ceno), Staphylococcus aureus (S. aureus, MRSA strain) and Acinetobacter baumannii (A. baum) (clinical isolates from Université de Genève/Centre Médical Universitaire). To determine the minimal inhibitory concentration (MIC), microdilution broth method was used. A colony of bacteria was grown in MH-medium overnight at 37° C. The samples were prepared as stock solutions of 8 mg mL^−1 in H2O, diluted to the beginning concentration of 32, 64, 128 or 256 μg/mL in 300 μL MH-medium, added to the first well of 96-well microtiterplate (TPP, untreated) and diluted serially by ½. The concentration of the bacteria was quantified by measuring absorbance at 600 nm and diluted to OD600=0.022 in MH-medium. The sample solutions (150 μL) were mixed with 4 μL diluted bacterial suspension with a final inoculation of about of 5×10^5 CFU. The plates were incubated at 37° C. until satisfactory growth (˜18 h). For each test, two columns of the plate were kept for sterility control (SC, broth only) and growth control (GC, broth with bacterial inoculums, no antibiotics). The minimal inhibitory concentration (MIC) was defined as the lowest concentration of the antimicrobial substance (peptide dendrimer) that inhibited visible growth of the tested bacteria with the unaided eye. For microbiological study Polymyxin was used as references.

[3] = test system: P. aeruginosa PT1482 (A-), PT1485 (A-B-), PT1149 (A-B-C-algC), PT331 (Z61) (LPS mutants); format: cell-based, Pseudomonas aeruginosa; settings: MH medium, 12-18 h
Method: as §1

PAO1 = format: cell-based, Pseudomonas aeruginosa; settings: PAO1, MH medium + 30% human serum
Method: as §1

Polymyxin B [reference compound]
killing kinetics (bacterial survival over 24 hours) [1]: kill P. aeruginosa immediately | CF leakage from phosphatidylglycerol LUVs [2]: immediate leakage of CF | MIC PAO1 (P. aeruginosa PA01 (WT); MH medium, 12-18 h, two independent experiments in triplicate (Table 25)): 1 µg/mL | MIC (MH) (P. aeruginosa PA01 (WT); PAO1, MH medium (Table 24)): 2 µg/mL | MIC PT1482 (A-) [3]: 1 µg/mL | MIC PT1485 (AB-) [3]: <1 µg/mL | MIC (MH + 30% human serum) (PAO1): 4 µg/mL
